Inhibition data for seven compounds are collected here from US20100261679A1 (priority 2007, published 2010).

For assay [1], the target named is T1, cytoplasmic domain of the human CSF-1R (Homo sapiens, UniProt P07333).
T1 construct: Recombinant protein corresponding to the cytoplasmic domain of the human CSF-1R; purchased Invitrogen Corporation, Carlsbad, Calif; U.S.A. PV3249
T1 sequence (P07333 539-972 limits assumed): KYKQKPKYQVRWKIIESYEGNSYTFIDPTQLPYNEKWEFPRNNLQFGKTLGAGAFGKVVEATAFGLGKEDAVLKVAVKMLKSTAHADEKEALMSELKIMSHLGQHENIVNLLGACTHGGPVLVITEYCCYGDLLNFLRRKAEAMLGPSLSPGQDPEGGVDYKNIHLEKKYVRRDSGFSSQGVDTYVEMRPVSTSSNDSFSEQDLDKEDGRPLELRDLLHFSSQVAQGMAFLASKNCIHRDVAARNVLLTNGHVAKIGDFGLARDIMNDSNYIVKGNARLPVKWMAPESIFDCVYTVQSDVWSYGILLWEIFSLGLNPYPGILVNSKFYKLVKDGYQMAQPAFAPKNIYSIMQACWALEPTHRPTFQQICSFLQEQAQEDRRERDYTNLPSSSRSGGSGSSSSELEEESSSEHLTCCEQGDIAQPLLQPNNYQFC
Nature of the assay: In vitro kinase assay for CSF-1R (AlphaScreen). It is filed as biochemical. The note with it: tested at about 1 μM. (Bead proximity is the source of the signal in Alpha formats.)

Assay [2] deals with T2, PDGFRb (Homo sapiens, UniProt P09619).
T2 construct: The kinase domain of PDGFRβ was assayed in 50 mM Hepes; purchased Invitrogen P3082
Nature of the assay: Inhibition of PDGFRb kinase in an in vitro biochemical assay (alphascreen). The note with it: tested at about 1 μM; read-out: PDGFR % inhibition at 1 μM.

Assay [3] addresses T3, cKIT (Homo sapiens, UniProt P10721).
T3 construct: The kinase domain of cKIT was assayed in 50 mM Hepes; purchased Upstate 14-559
Description: Inhibition of cKIT kinase in an in vitro biochemical assay (alphascreen). The note with it: tested at about 1 μM.

Usually inhibition stands for the percentage by which the read-out fell short of the control.

T2 sequence (P09619 600-962 limits assumed): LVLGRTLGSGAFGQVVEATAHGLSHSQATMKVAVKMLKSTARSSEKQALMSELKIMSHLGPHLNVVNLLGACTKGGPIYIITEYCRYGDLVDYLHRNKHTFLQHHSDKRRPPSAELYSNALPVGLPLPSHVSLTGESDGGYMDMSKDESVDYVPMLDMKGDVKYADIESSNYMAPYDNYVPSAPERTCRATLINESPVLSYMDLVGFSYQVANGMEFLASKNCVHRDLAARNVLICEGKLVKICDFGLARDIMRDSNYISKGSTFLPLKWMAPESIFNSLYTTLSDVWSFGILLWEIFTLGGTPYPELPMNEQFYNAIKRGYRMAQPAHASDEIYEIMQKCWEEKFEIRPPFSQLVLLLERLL
T3 sequence (P10721 589-937 limits assumed): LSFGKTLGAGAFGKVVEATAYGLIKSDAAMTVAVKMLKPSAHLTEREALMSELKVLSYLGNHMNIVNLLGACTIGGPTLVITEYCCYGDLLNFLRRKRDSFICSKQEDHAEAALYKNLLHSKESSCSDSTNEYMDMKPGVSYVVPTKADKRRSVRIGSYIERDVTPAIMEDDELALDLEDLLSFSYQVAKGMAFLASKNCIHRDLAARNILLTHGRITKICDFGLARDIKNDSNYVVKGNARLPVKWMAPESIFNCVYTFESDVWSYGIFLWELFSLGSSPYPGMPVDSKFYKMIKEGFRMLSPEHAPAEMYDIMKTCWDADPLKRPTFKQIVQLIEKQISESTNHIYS

Turning to `CNC(=O)c1cc(Oc2ccc3nc(N[C@@H]4CCCC[C@H]4O)ccc3c2)ccn1` [Example 1], the inhibition at 1 µM in assay [1] is 100%; in assay [2], 33%; in assay [3], 51%.
`CNC(=O)c1cc(Oc2ccc3nc(Nc4ccccc4OC(C)C)ncc3c2)ccn1` [Example 46, 4-(2-(2-isopropoxyphenylamino)quinazolin-6-yloxy)-N-methylpicolinamide]: the inhibition at 1 µM in assay [1] worked out at 100%; in assay [2] it was 17%; in assay [3], 27%.
For `c1cc(Cc2ccc3nc(NCC4CCCCC4)sc3c2)ccn1` [Example 77, N-(cyclohexylmethyl)-6-(pyridin-4-ylmethyl)benzo[d]thiazol-2-amine], in that order: 74%, 16% and 10%.
For `CNC(=O)c1cc(Nc2ccc3nc(N[C@@H]4CCCC[C@H]4O)sc3c2)ccn1` [Example 79, 4-(2-((1R,2R)-2-hydroxycyclohexylamino)benzo[d]thiazol-6-ylamino)-N-methylpicolinamide], in that order: 97%, less than 1% and 13%.
With `CNC(=O)c1cc(Oc2ccc3nc(N[C@@H]4CCCC[C@H]4N)ncc3c2)ccn1` [Example 73, 4-(2-((1R,2R)-2-aminocyclohexylamino)quinazolin-6-yloxy)-N-methylpicolinamide], the inhibition at 1 µM turned out to be 62% in assay [1], 19% in assay [2] and 8% in assay [3].
For `CNC(=O)c1cc(Oc2ccc3nc(NCc4ccccc4N4CCOCC4)ncc3c2)ccn1` [Example 41, N-methyl-4-(2-(2-morpholinobenzylamino)quinazolin-6-yloxy)picolinamide], in that order: 100%, 92% and 6%.
For `NC(=O)c1cc(Oc2ccc3nc(Nc4ccccc4N4CCOCC4)ncc3c2)ccn1` [Example 33, 4-(2-(2-morpholinophenylamino)quinazolin-6-yloxy)picolinamide] the same measures were 84%, less than 1% and 14%.
